From ChEMBL document CHEMBL2417377, “Hit-to-lead optimization and kinase selectivity of imidazo[1,2-a]quinoxalin-4-amine derived JNK1 inhibitors” (Bioorg Med Chem Lett, 2013)

Legend:
Settings in all cases: PC-3
[1] = biological target: Mitogen-activated protein kinase kinase kinase 4 (Homo sapiens) (UniProt Q9Y6R4); test: Inhibition of MAP3K4 in human PC3 cell lysates at 10 uM using desthiobiotin-tagged ATP probe AX9989 followed by trypsinization by LC/MS analysis
[2] = biological target: Cyclin-dependent kinase 11B (Homo sapiens) (UniProt P21127); test: Inhibition of CDK11 in human PC3 cell lysates at 10 uM using desthiobiotin-tagged ATP probe AX9989 followed by trypsinization by LC/MS analysis
Sequence of Cyclin-dependent kinase 11B (Homo sapiens) (P21127 whole entry): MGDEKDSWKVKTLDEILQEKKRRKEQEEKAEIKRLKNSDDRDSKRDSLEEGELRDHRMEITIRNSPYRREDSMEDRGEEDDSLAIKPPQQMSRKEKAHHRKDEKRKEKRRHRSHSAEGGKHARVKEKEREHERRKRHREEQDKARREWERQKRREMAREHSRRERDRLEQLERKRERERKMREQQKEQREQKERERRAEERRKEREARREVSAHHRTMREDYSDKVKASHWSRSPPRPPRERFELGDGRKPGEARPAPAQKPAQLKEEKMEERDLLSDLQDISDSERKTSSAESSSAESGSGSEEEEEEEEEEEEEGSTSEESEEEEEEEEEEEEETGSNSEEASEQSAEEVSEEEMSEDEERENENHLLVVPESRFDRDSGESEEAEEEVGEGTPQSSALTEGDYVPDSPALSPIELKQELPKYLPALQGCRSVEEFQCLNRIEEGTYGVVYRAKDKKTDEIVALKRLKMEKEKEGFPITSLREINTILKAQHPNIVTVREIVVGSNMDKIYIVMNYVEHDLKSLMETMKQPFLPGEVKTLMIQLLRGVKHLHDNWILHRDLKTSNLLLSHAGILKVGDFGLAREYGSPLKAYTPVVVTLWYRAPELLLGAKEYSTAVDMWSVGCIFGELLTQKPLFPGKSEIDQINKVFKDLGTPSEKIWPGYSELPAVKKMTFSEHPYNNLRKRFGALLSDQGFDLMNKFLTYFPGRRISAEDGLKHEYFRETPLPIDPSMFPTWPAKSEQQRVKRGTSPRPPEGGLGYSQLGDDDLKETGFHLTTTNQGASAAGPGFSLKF

[3] = biological target: Protein kinase C alpha type (Homo sapiens) (UniProt P17252); test: Inhibition of PKCalpha in human PC3 cell lysates at 10 uM using desthiobiotin-tagged ATP probe AX9989 followed by trypsinization by LC/MS analysis
[4] = biological target: Cyclin-dependent kinase 14 (Homo sapiens) (UniProt O94921); test: Inhibition of PFTAIRE1 in human PC3 cell lysates at 10 uM using desthiobiotin-tagged ATP probe AX9989 followed by trypsinization by LC/MS analysis
Sequence of Cyclin-dependent kinase 14 (Homo sapiens) (O94921 whole entry): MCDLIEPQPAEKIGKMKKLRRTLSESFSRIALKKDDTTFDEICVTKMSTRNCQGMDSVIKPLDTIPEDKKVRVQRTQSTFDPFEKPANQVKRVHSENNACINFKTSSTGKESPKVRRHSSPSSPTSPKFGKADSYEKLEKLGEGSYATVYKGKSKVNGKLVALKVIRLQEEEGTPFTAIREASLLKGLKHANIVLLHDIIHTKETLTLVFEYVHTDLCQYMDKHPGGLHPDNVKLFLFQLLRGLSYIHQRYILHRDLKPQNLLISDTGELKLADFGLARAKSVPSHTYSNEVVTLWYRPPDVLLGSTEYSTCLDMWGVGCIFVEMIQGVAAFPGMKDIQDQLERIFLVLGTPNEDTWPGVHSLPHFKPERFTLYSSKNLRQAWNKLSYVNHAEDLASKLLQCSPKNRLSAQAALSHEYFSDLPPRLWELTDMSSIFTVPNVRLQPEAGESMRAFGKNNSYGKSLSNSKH

[5] = biological target: T1, Phosphatidylinositol 5-phosphate 4-kinase type-2 gamma (Homo sapiens) (UniProt Q8TBX8); test: Inhibition of PIP4K2C in human PC3 cell lysates at 10 uM using desthiobiotin-tagged ATP probe AX9989 followed by trypsinization by LC/MS analysis
T1 sequence (whole entry): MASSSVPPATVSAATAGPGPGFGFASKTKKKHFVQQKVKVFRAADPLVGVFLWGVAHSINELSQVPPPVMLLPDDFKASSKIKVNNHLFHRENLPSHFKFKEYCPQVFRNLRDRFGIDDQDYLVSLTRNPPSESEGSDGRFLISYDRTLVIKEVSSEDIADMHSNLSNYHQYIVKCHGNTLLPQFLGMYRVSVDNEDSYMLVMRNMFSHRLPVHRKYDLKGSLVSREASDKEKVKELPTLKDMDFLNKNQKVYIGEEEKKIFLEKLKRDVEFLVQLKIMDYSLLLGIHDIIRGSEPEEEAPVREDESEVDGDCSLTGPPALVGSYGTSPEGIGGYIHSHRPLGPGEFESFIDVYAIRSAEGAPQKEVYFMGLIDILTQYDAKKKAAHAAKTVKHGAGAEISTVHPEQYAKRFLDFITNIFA

[6] = biological target: Ribosomal protein S6 kinase alpha-3 (Homo sapiens) (UniProt P51812); test: Inhibition of RSK2 domain2 in human PC3 cell lysates at 10 uM using desthiobiotin-tagged ATP probe AX9989 followed by trypsinization by LC/MS analysis
Sequence of Ribosomal protein S6 kinase alpha-3 (Homo sapiens) (P51812 whole entry, the tested form may be a part): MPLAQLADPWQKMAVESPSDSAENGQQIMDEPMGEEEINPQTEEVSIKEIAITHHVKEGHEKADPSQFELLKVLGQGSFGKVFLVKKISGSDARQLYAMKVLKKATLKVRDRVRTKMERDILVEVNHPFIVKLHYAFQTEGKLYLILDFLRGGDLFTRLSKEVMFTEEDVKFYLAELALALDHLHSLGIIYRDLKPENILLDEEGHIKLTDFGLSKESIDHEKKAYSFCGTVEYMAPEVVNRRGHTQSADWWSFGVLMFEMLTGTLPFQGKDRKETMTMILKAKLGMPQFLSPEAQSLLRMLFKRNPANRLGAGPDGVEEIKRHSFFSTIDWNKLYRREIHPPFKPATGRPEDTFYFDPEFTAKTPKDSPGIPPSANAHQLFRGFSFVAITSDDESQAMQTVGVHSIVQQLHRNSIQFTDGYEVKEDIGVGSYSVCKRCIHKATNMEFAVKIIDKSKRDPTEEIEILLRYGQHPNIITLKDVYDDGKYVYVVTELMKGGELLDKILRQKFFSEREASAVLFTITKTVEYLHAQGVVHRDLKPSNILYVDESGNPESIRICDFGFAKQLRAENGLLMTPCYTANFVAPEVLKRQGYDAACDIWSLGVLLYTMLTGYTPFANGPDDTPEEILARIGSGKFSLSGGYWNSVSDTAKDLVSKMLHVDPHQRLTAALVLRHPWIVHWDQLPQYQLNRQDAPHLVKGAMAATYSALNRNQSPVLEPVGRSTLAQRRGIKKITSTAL

[7] = biological target: Dual specificity mitogen-activated protein kinase kinase 2 (Homo sapiens) (UniProt P36507); test: Inhibition of MAP2K2 in human PC3 cell lysates at 10 uM using desthiobiotin-tagged ATP probe AX9989 followed by trypsinization by LC/MS analysis
Sequence of Dual specificity mitogen-activated protein kinase kinase 2 (Homo sapiens) (P36507 whole entry): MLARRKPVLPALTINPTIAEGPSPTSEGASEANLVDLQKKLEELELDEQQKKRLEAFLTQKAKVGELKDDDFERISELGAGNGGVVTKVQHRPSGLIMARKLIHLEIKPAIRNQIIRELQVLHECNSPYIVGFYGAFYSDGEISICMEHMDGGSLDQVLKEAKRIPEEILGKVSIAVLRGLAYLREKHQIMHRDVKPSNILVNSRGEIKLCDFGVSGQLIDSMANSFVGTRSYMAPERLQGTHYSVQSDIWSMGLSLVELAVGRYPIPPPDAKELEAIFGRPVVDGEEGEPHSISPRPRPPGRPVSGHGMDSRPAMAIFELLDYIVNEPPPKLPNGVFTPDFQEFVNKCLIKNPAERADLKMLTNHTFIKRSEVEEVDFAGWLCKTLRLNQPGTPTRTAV

[8] = biological target: Ephrin type-A receptor 7 (Homo sapiens) (UniProt Q15375); test: Inhibition of EphA7 in human PC3 cell lysates at 10 uM using desthiobiotin-tagged ATP probe AX9989 followed by trypsinization by LC/MS analysis
Sequence of Ephrin type-A receptor 7 (Homo sapiens) (Q15375 28-998 limits assumed): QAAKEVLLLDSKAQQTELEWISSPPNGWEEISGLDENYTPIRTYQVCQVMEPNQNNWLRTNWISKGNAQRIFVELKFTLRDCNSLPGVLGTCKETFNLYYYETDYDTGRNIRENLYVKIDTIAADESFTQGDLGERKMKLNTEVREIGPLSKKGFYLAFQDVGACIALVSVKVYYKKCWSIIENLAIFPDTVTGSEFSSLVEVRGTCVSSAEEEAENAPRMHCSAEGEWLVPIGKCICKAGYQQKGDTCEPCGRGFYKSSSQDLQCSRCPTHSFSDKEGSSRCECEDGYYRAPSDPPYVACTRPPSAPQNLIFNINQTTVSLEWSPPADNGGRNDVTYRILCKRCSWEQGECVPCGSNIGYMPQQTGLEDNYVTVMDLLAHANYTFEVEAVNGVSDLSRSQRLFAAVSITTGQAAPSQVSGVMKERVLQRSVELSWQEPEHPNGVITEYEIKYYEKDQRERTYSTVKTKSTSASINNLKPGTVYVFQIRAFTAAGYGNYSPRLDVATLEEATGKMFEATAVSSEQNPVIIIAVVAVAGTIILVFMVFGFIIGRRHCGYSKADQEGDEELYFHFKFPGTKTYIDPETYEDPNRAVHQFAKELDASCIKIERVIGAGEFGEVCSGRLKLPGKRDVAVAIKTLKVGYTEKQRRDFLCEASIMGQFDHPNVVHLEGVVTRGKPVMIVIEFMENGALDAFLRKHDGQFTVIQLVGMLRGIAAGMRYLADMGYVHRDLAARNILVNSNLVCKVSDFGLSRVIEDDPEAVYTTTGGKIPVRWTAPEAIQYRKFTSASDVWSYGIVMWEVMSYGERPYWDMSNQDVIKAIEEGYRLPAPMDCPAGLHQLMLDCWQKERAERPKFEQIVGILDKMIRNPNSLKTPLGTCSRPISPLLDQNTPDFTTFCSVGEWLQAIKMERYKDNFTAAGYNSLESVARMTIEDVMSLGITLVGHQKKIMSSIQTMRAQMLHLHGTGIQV

[9] = biological target: Serine/threonine-protein kinase Nek6 (Homo sapiens) (UniProt Q9HC98); test: Inhibition of NEK6 in human PC3 cell lysates at 10 uM using desthiobiotin-tagged ATP probe AX9989 followed by trypsinization by LC/MS analysis
Sequence of Serine/threonine-protein kinase Nek6 (Homo sapiens) (Q9HC98 whole entry): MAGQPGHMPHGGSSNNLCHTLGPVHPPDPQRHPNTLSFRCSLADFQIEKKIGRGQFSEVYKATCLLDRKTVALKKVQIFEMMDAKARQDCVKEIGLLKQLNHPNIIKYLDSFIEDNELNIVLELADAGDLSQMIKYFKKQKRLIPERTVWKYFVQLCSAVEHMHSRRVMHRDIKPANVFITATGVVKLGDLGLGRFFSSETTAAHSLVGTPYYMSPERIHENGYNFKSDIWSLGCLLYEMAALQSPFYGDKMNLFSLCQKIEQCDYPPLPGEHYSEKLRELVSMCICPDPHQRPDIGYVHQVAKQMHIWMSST

[10] = biological target: T2, Ephrin type-B receptor 4 (Homo sapiens) (UniProt P54760); test: Inhibition of EphB4 in human PC3 cell lysates at 10 uM using desthiobiotin-tagged ATP probe AX9989 followed by trypsinization by LC/MS analysis
T2 sequence (whole entry): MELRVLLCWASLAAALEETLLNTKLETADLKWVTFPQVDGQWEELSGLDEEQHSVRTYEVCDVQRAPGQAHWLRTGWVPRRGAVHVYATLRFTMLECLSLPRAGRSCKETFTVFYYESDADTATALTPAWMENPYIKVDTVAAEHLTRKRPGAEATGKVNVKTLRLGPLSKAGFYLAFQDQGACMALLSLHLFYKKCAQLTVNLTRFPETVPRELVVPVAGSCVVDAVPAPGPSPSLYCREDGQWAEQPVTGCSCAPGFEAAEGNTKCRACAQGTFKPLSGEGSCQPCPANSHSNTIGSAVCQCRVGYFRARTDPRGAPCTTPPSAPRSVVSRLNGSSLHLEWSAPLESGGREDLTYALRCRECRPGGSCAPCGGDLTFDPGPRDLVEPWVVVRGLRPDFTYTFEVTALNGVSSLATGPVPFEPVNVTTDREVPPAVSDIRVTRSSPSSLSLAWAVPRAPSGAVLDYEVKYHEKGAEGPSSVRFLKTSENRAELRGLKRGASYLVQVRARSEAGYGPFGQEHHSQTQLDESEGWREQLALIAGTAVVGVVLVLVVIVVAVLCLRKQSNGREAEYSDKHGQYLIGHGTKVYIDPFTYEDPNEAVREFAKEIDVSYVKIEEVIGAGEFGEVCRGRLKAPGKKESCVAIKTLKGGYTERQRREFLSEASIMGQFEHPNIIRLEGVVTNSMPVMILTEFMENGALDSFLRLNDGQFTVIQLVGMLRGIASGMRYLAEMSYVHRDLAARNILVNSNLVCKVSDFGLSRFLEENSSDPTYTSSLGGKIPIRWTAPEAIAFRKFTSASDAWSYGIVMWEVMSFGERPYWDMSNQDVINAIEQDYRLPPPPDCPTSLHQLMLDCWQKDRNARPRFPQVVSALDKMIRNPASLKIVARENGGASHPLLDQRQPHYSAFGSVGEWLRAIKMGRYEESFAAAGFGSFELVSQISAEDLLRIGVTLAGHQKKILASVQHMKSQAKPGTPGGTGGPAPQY

[11] = biological target: IKK epsilon/TBK1 (Homo sapiens) (UniProt Q14164+Q9UHD2); test: Inhibition of IKKepsilon/TBK1 in human PC3 cell lysates at 10 uM using desthiobiotin-tagged ATP probe AX9989 followed by trypsinization by LC/MS analysis; assay type: protein-complex assay

SMILES	inhibition [1] [%]	inhibition [2] [%]	inhibition [3] [%]	inhibition [4] [%]	inhibition [5] [%]	inhibition [6] [%]	inhibition [7] [%]	inhibition [8] [%]	inhibition [9] [%]	inhibition [10] [%]	inhibition [11] [%]
CC(C)(NC(=O)c1ccc2nc(N[C@H]3CC[C@H](O)CC3)c3nccn3c2c1)c1ccccc1	< 35	< 35	< 35	< 35	< 35	< 35	< 35	< 35	< 35	< 35	< 35
O=C(NC1(Cc2ccc(F)cc2)CC1)c1ccc2nc(N[C@H]3CC[C@H](O)CC3)c3nccn3c2c1	< 35	< 35	< 35	< 35	< 35	< 35	< 35	< 35	< 35	< 35	< 35
O=C(N[C@H](CO)c1ccccc1)c1ccc2nc(N[C@H]3CC[C@H](O)CC3)c3nccn3c2c1	< 35	< 35	< 35	< 35	44.5	< 35	< 35	< 35	< 35	< 35	< 35
C[C@H](NC(=O)c1ccc2nc(N[C@H]3CC[C@H](O)CC3)c3nccn3c2c1)c1ccccc1	< 35	< 35	< 35	< 35	< 35	< 35	< 35	< 35	< 35	< 35	< 35
O=C(NC1(c2ccc(F)cc2)CC1)c1ccc2nc(N[C@H]3CC[C@H](O)CC3)c3nccn3c2c1	< 35	< 35	< 35	< 35	< 35	< 35	< 35	< 35	< 35	< 35	< 35
C[C@@H](NC(=O)c1ccc2nc(N[C@H]3CC[C@H](O)CC3)c3nccn3c2c1)c1ccccc1	< 35	< 35	< 35	< 35	51	< 35	< 35	< 35	< 35	< 35	38.7
CC[C@@H](NC(=O)c1ccc2nc(N[C@H]3CC[C@H](O)CC3)c3nccn3c2c1)c1ccccc1	< 35	< 35	< 35	< 35	< 35	< 35	< 35	< 35	< 35	< 35	< 35
CCC[C@@H](NC(=O)c1ccc2nc(N[C@H]3CC[C@H](O)CC3)c3nccn3c2c1)c1ccccc1	< 35	< 35	< 35	< 35	< 35	< 35	< 35	< 35	< 35	< 35	< 35
O=C(NC1(c2ccccc2)CCC1)c1ccc2nc(N[C@H]3CC[C@H](O)CC3)c3nccn3c2c1	< 35	< 35	< 35	< 35	< 35	< 35	< 35	< 35	< 35	< 35	< 35
O=C(O)c1ccc2nc(N[C@H]3CC[C@H](O)CC3)c3nccn3c2c1	< 35	< 35	< 35	80.1	90.1	< 35	< 35	< 35	< 35	< 35	< 35
NC(=O)c1ccc2nc(N[C@H]3CC[C@H](O)CC3)c3nccn3c2c1	< 35	< 35	< 35	< 35	78.1	< 35	< 35	< 35	< 35	< 35	< 35
O=C(NC1(c2ccccc2)CC1)c1ccc2nc(N[C@H]3CC[C@H](O)CC3)c3nccn3c2c1	< 35	< 35	< 35	< 35	< 35	< 35	< 35	< 35	< 35	< 35	< 35
